Results reported in PMC7251074, “Identification of Anti-tuberculosis Compounds From Aurone Analogs” (Frontiers in Microbiology, 2020).
Converted amounts (≈) assume the structure as drawn. Like-named read-outs stand apart in the source and are kept apart here.

What was measured:
[1] = test system: purine nucleoside phosphorylase (PNP); experiment: Purine nucleoside phosphorylase counter-assay; type: biochemical; conditions: PNP 0.2 U, MESG 50 μM, potassium phosphate 10 mM
Procedure: FIGURE 4 AA2A and 9504 inhibit Mtb-Cs activity. (A) Assay to measure the ability of aurones to inhibit Cs of Mtb. (B) SDS-PAGE analysis of extracted rRv3227 (left) and rRv2540c (right). Lane 1: marker (PageRuler^M Unstained); 2: crude protein extracts; 3–5: samples eluted from Ni-column by 125, 250, and 500 mM imidazole, respectively; 6: the concentrated proteins eluted by 500 mM imidazole. (C) Evaluation of 9501, 9504, 9505, and 9510 inhibitory effects on Mtb-Cs activity. (D) Evaluation of AA2A and AA8 inhibitory effects on Mtb-Cs activity. Data are means of three independent experiments ± S.D. The reaction mixture comprised Mtb-Cs, various concentrations of aurone leads, EPSP ([…]), FMN (0.04 mM) and NADH (0.3 mM). The production of chorismate from the enzymatic reaction was determined by measuring Pi production using MESG (0.2 mM) and PNP (1 U). […] The reaction mixture comprised PNP (0.2 U), MESG (50 μM), potassium phosphate (10 mM), and aurones (50 μM for 9501, 9504, 9505, and 9510; 200 μM for AA2A and AA8). No significant differences (P > 0.05) were identified between each of the aurone-treated group and the positive control group. Data are means of three independent experiments ± S.D.

[2] = test system: intracellular Mtb in THP-1 cell derived macrophages; experiment: Efficacy against intracellular Mtb in THP-1 derived macrophages; type: cell-based, Mycobacterium tuberculosis; conditions: for Mtb CFU compared to the initial intracellular Mtb load (0 h) / CFUs of intracellular Mtb at 48 h compared to before treatment (0 h): 48 h; for CFUs of intracellular Mtb at 48 h compared to before treatment (0 h): 25 and 50 μM
Procedure: Human monocyte THP-1 cells were seeded at 5 × 10^4 cells / well in 96-well tissue culture black plates with clear bottoms. PMA was used to induce the monocytes to develop into macrophages for 3 days before infection. The tdTomato-expressing Mtb strain was employed for cell infection at an MOI = 20. After a 3 h incubation of the Mtb strain with THP-1 cells, extracellular bacteria were removed by washing twice with the cell culture medium. 200 μL of cell culture medium containing either 25 or 50 μM aurones or 1X MICs of amikacin (AMI, 1 μg/mL), ethambutol (ETH, 0.5 μg/mL), RIF (0.4 μg/mL) and isoniazid (INH) (0.5 μg/mL) was added to each well in triplicate and incubated for 48 h. Infected cells treated with the vehicle buffer served as negative controls. Cells were then lysed and plated for CFU counting.
FIGURE 2 Aurones inhibit intracellular Mtb. (A) Growth ratios of samples treated with the aurone leads or control drugs compared to the growth ratio of untreated control. Growth ratio of each sample = FI of each sample at 48 h / FI of the same sample at 0 h. (B) CFUs of samples treated with the aurone leads or control drugs compared to the CFU of untreated control at 0 and 48 h. 25 and 50 μM of the aurone leads were incubated with the infected cells (MOI = 20) after removing extracellular bacteria. Positive controls: AMI (1 μg/mL), ETH (0.5 μg/mL), INH (0.5 μg/mL), and RIF (0.4 μg/mL). Data are means of three independent experiments ± S.D. *P < 0.05, **P < 0.01, ****P < 0.0001.

HepG2 cells = experiment: MTT cell viability cytotoxicity assay, HepG2; type: cell-based, human; conditions: for IC50: Homo sapiens, HepG2, 48 h, read-out: IC50 HepG2; for SI (IC50/MIC) HepG2: IC50 HepG2 / MIC Mtb, 2880 min; for selectivity index: on all three cell lines (HepG2, Vero, THP-1)
Procedure: Cytotoxicities of the aurones were evaluated in Vero cells (ATCC), HepG2 (ATCC), and THP-1 cells (ATCC) using the standard microculture tetrazolium (MTT) cell viability assay. Media used for the Vero cells was DMEM supplemented with 10% calf serum; for HepG2 cells the media used was DMEM supplemented with 20% calf serum; and for THP-1 cells the media used was RPMI-1640 supplemented with 10% calf serum (HyClone Cosmic Calf, GE Lifesciences). Cells were seeded into a 96-well plate. For THP-1 cells, phorbol-12-myristate-13-acetate (PMA) was used to induce the monocytes to develop into macrophages for 3 days before the cytotoxicity assay. A series of two-fold dilutions of aurones or RIF were added into the cell culture media in microplates to determine the concentration that eliminated 50% of eukaryotic cell growth in a 2-days incubation. Cells without drug treatment were incubated with the vehicle buffer and served as negative controls (100% viable). Cells treated with digitonin (100 μg/mL) served as the positive controls. After a 2-days incubation, 10 μL of MTT reagent was loaded into each well, and incubated for 3 h at 37°C. Hundred microliter of detergent solution was then added into each well and the 96-well plates were incubated for 2 h. Absorbance of each sample in the 96-well plates was measured at […]. Viability of each drug-treated sample was calculated as the absorbance of the sample divided by the absorbance of the untreated sample multiplied by 100.
We determined MICs of the top six aurone leads (AA2A, AA8, 9501, 9504, 9505, and 9510) using the standard resazurin microtiter assay (REMA) ([Palomino et al., 2002]). The MIC was defined as the lowest drug concentration that prevented the color change of resazurin from blue to pink. The MICs for 9504, 9505, 9501, 9510, AA2A, and AA8 were 6.25, 12.5, 25, 25, 25, and 50 μM, respectively (Table 2). We evaluated the cytotoxic effects of aurones to human liver cells HepG2, primate kidney Vero cells and human monocyte THP-1 cells after a 2-days incubation using the microculture tetrazolium (MTT) cell viability assay. Concentration gradients of the selected aurones or RIF (as a control) were incubated with the three cell lines. We calculated half maximal inhibitory concentration (IC50) of aurones on these three cell lines. By comparing MICs with IC50, we calculated the selectivity index (SI) for each aurone lead as […].

Mtb CDC1551 = experiment: Resazurin microtiter assay (REMA) for MICs; type: cell-based; conditions: Mycobacterium tuberculosis, CDC1551, 168 h
THP-1 cells = experiment: MTT cell viability cytotoxicity assay, THP-1 derived macrophages; type: cell-based, human; conditions: for IC50: Homo sapiens, THP-1, 48 h, read-out: IC50 THP-1; for SI (IC50/MIC) THP-1: IC50 THP-1 / MIC Mtb, 2880 min
[3] = test system: tdTomato-expressing Mtb CDC1551 strain; experiment: microbe, parasite or virus in culture; type: cell-based, Mycobacterium tuberculosis; conditions: aurones at 100 μM, 3 days co-incubation, tdTomato fluorescence intensity; for inhibition at 100 µM: Mycobacterium tuberculosis, 72 h, read-out: Inhibitory rate
Vero cells = experiment: MTT cell viability cytotoxicity assay, Vero; type: cell-based, primate; conditions: for SI (IC50/MIC) Vero: IC50 Vero / MIC Mtb, 2880 min; for IC50: Primates, Vero, 48 h, read-out: IC50 Vero
[4] = molecular target: Mtb chorismate synthase (Mtb-Cs, Rv2540c) (Mycobacterium tuberculosis, UniProt P9WPY1); experiment: Mtb chorismate synthase activity assay (coupled, Pi production with MESG/PNP); type: biochemical; conditions: Pi production at A360, EPSP, FMN 0.04 mM, NADH 0.3 mM
Chain of Mtb chorismate synthase (Mtb-Cs, Rv2540c) (P9WPY1 whole entry): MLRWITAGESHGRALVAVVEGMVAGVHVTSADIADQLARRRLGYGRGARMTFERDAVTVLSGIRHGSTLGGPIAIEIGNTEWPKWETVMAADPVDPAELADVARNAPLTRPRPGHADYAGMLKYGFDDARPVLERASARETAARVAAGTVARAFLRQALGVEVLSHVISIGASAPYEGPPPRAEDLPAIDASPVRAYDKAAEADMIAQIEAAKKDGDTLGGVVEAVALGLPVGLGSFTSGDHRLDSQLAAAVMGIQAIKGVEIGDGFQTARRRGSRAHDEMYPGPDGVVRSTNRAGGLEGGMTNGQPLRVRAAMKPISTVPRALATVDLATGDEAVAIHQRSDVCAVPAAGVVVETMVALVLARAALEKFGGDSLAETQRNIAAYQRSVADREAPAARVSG

[5] = test system: tdTomato-expressing Mtb in the lungs of BALB/c mice; type: in vivo, Mycobacterium tuberculosis; conditions: after a 12-days treatment
Mtb = test system: Mtb; parameters: method as in Jayaram et al., 2003; conditions: 10 mg/kg, 12 daily oral doses; ref Jayaram et al., 2003; cited from earlier work
[6] = REMA, 7 days incubation, lowest concentration preventing resazurin colour change, read-out: MIC
[7] = MTT, 2-days incubation, PMA-induced macrophages

Compound	inhibition of PNP ([1]; aurone 50 μM)	IC50 (HepG2 cells; MTT, 2-days incubation) [µM]	SI (IC50/MIC) HepG2 (HepG2 cells)	MIC (Mtb CDC1551; [6]) [µM]	IC50 (THP-1 cells; [7]) [µM]	SI (IC50/MIC) THP-1 (THP-1 cells)	inhibition at 100 µM [3] [%]	SI (IC50/MIC) Vero (Vero cells)	IC50 (Vero cells; MTT, 2-days incubation) [µM]	IC50 [4] [µM]	Inhibitory rate [3] [%]	Mtb CFU compared to the initial intracellular Mtb load (0 h) ([2]; 50 μM)	CFUs of intracellular Mtb at 48 h compared to before treatment (0 h) [2]	Mtb load in the lungs of infected mice [5]	also measured
Cc1cc2c(cc1C)C(=O)C(=Cc1ccc(N(C)C)cc1)O2 [Aurone 9510]	do not inhibit	451	18.06	25 (≈ 7.33 µg/mL)	693	27.71	83.1 ± 1.62	35.69	892	15.1 ± 1.68	–	–	–	–	intracellular Mtb replication ([2]; 25 μM, at 48 h): did not fully inhibit; selectivity index (HepG2 cells): > 10
CC(=O)N1/C(=C\c2ccccc2O)C(=O)c2ccccc21 [AA3A]	–	–	–	–	–	–	–	–	–	–	41.32 ± 9.99	–	–	–	–
CC(=O)N1C(=Cc2ccccc2Br)C(=O)c2ccccc21 [AA2A]	–	118	4.71	25 (≈ 8.55 µg/mL)	110	4.39	85.95 ± 0.38	5.13	128	24.1 ± 0.55	–	reduced Mtb CFU significantly	did not increase	significantly reduced	inhibition of PNP ([1]; aurone 200 μM): do not inhibit
CC(=O)N1/C(=C\c2ccc(CO)o2)C(=O)c2ccccc21 [AA4A]	–	–	–	–	–	–	–	–	–	–	66.18 ± 0.98	–	–	–	–
CN(C)c1ccc(C=C2Oc3c(Br)cccc3C2=O)cc1 [Aurone 9505]	do not inhibit	29.3	2.34	12.5 (≈ 4.3 µg/mL)	219	17.56	84.4 ± 2.99	38.34	479	24.5 ± 9.44	–	reduced Mtb CFU significantly	did not increase	–	Mtb CFU compared to the initial intracellular Mtb load (0 h) ([2]; 25 μM): reduced Mtb CFU significantly
CC(=O)N1/C(=C\c2ccc[nH]2)C(=O)c2ccccc21 [AA5A]	–	–	–	–	–	–	–	–	–	–	69.93 ± 10.09	–	–	–	–
CN(C)c1ccc(C=C2Oc3cc(Br)ccc3C2=O)cc1 [Aurone 9504]	do not inhibit	–	126.40	–	–	100.50	88.29 ± 0.16	87.98	–	17.1 ± 1.07	–	reduced Mtb CFU significantly	did not increase	significantly reduced	IC50 (HepG2 cells): 790 µM; selectivity index (HepG2 cells): > 10; MIC (Mtb CDC1551): 6.25 µM (≈ 2.15 µg/mL); IC50 (THP-1 cells): 628 µM; IC50 (Vero cells): 550 µM
CO[C@H]1/C=C/O[C@@]2(C)Oc3c(C)c(O)c4c(O)c(c(/C=N/N5CCN(C)CC5)c(O)c4c3C2=O)NC(=O)/C(C)=C\C=C\[C@H](C)[C@H](O)[C@@H](C)[C@@H](O)[C@@H](C)[C@H](OC(C)=O)[C@@H]1C [RIF, rifampicin, reference compound]	–	4.56	–	0.5 (≈ 0.411 µg/mL)	15	–	–	–	22.8	–	–	–	–	–	CFU reduction in bacterial burden in the lungs (Mtb): ~1 log10 CFU
O=C1C(=Cc2ccccc2)Nc2ccccc21 [AA8]	–	399	7.99	50 (≈ 11.1 µg/mL)	504	10.08	71.9 ± 2	5.58	279	50.3 ± 8.61	–	–	did not increase	significantly reduced	inhibition of PNP ([1]; aurone 200 μM): do not inhibit
